{
  "source": "paper PMC6511062",
  "about": "“Preclinical candidate for the treatment of visceral leishmaniasis that acts through proteasome inhibition” (Proceedings of the National Academy of Sciences of the …, 2019)",
  "key": {"[1]": {"tested_on": "TA1537", "experiment": "Ames test, strain TA1537", "protocol": "oxidative metabolism system (S9-mix). The maximum concentration tested and […]\nCompound 7a was tested in a bacterial mutation screening assay (Ames test) with Salmonella typhimurium TA1535, TA1537, TA98, TA100 and Escherichia coli WP2uvrA(pKM101) in the presence and absence of an exogenous mammalian […]\nThe bacterial mutation screening assay was a plate incorporation test carried out as previously described15 and according to current methodology. […]"}, "[2]": {"tested_on": "L. donovani axenic amastigotes", "experiment": "L. donovani axenic amastigote drug sensitivity", "type": "cell-based", "details": "Leishmania donovani, concentration stated as 1X IC50, read-out: whole cell IC50", "protocol": "T. cruzi4, Leishmania donovani axenic amastigote, cidal axenic amastigote and intra-macrophage drug sensitivity assays were conducted as previously described5,6.\nThe rate of kill of compound 8 was determined in axenic amastigotes using the previously described cidal axenic assay5, with one minor modification. Instead of a single readout at 72 h, multiple identical plates were used and read at different time points (24, 48, 72 h). Rate of kill curves showing the luminescence signal at each time point for each concentration were plotted.\n5. Intrinsic clearance (CLint) […]\nXLfit (idbs, UK) was used to calculate the exponential decay and consequently the rate constant (k) from the ratio of peak area of test compound to internal standard at each time-point. The rate of intrinsic clearance (CLint) of each test compound was then calculated using the following calculation: […]\nCompounds were dispensed into black 384-well assay plates (Greiner) by acoustic dispensing (LabCyte ECHO). […] Three proteasome activities were measured using a commercially available indirect enzyme-based luminescent assay kit (Promega) with Suc-LLVY-aminoluciferin, Z-LRR-aminoluciferin and Z-nLPnLD-aminoluciferin used as substrates for chymotrypsin-like, trypsin-like and caspase-like activities, respectively. […]"}, "[3]": {"tested_on": "clinically-relevant Leishmania strains", "experiment": "Activity in clinically-relevant Leishmania strains", "type": "cell-based", "excerpt": "Strain Leishmania EC50 (µM) Host Cell EC50 (µM)\nResults from one or two (both values shown) biological replicates. […]"}, "[4]": {"tested_on": "human proteasome catalytic subunits (THP-1 extracts)", "experiment": "Activity-based probe (UbiQ-018) labelling of THP-1 proteasome", "type": "binding", "details": "human THP-1 extracts, 100 µM", "quoted_text": "Activity-Based Probe Labelling of THP1 and L. donovani proteasome\nProteasome enriched fractions from THP1 (20 µg), L. donovani (10 µg) and L. donovani\nµM for 1 h. Proteasome enriched fractions were also incubated with DMSO as control.\nFor all proteasome labelling experiments, the active-site probe Me4BodipyFL-Ahx3Leu3VS (UbiQ-018) was used at final concentration of 500 nM in sucrose buffer (50 mM Tris buffer pH 7.5, 5 mM magnesium chloride, 1 mM EDTA, 50 mM NaCl, 250 mM sucrose, 2 mM ATP, 1 mM DTT). Proteasome enriched fractions treated with\nDMSO or test compounds, were incubated with the probe for 2h at RT. Samples were then denatured by addition of Laemmli sample buffer, heated to 95°C for 10 min and separated by electrophoresis on a 15% SDS-PAGE acrylamide gel. Following separation, gels were scanned in the fluorescein channel of a ChemiDoc reader (λ excitation/emission = 480/530 nm). Fluorescent proteins were excised and MALDI– TOF analysis carried out by the FingerPrints Proteomics service at the University of"}},
  "note": "Like-named read-outs stand apart in the source and are kept apart here.",
  "data": [
    {"smiles": "O=C(Nc1ccc(F)c(-c2ccn3c(N4CCOCC4)cnc3n2)c1)N1CCCC1", "note": "[Compound 8]", "values": [
      {"measurement": "Mean revertants per plate", "setting": "[1]; with S9-mix, dose level 50 per plate", "value": 18.0},
      {"measurement": "Mean revertants per plate", "setting": "[1]; with S9-mix, dose level 150 per plate", "value": 14.5},
      {"measurement": "Mean revertants per plate", "setting": "[1]; with S9-mix, dose level 500 per plate", "value": 21.0},
      {"measurement": "Mean revertants per plate", "setting": "[1]; with S9-mix, dose level 1500 per plate", "value": 11.0},
      {"measurement": "Mean revertants per plate", "setting": "[1]; with S9-mix, dose level 2500 per plate", "value": 13.5},
      {"measurement": "Mean revertants per plate", "setting": "[1]; with S9-mix, dose level 5000 per plate", "value": 8.5},
      {"measurement": "Mean revertants per plate", "setting": "[1]; without S9-mix, dose level 50 per plate", "value": 14.0},
      {"measurement": "Mean revertants per plate", "setting": "[1]; without S9-mix, dose level 150 per plate", "value": 9.5},
      {"measurement": "Mean revertants per plate", "setting": "[1]; without S9-mix, dose level 500 per plate", "value": 16.0},
      {"measurement": "Mean revertants per plate", "setting": "[1]; without S9-mix, dose level 1500 per plate", "value": 12.5},
      {"measurement": "Mean revertants per plate", "setting": "[1]; without S9-mix, dose level 2500 per plate", "value": 14.5},
      {"measurement": "Mean revertants per plate", "setting": "[1]; without S9-mix, dose level 5000 per plate", "value": 6.5},
      {"measurement": "IC50", "setting": "[2]", "value": 300, "unit": "nM"},
      {"measurement": "EC50", "setting": "[3]; Leishmania, in vitro, clinical strains incl. LV9, SUKA001, DD8-WT, BHU1, read-out: EC50 against clinical strains", "value": "~1000", "unit": "nM"},
      {"measurement": "EC50", "setting": "[3]; Leishmania, strain MHOM/ET/67/HU3 (LV9), read-out: Leishmania EC50", "value": 400, "unit": "nM"},
      {"measurement": "EC50", "setting": "[3]; Leishmania, strain MHOM/IN/80/DD8, read-out: Leishmania EC50", "value": 1600, "unit": "nM"},
      {"measurement": "EC50", "setting": "[3]; Leishmania, strain MHOM/IN/2002/BHU1, read-out: Leishmania EC50", "value": 600, "unit": "nM"},
      {"measurement": "EC50", "setting": "[3]; Leishmania, strain SUKA001, read-out: Leishmania EC50", "value": 500, "unit": "nM"},
      {"measurement": "EC50", "setting": "[3]; strain MHOM/ET/67/HU3 (LV9), read-out: Leishmania EC50", "value": 800, "unit": "nM"},
      {"measurement": "UbiQ-018 labelling of proteasome subunits", "setting": "[4]", "value": "no effect"}
    ]}
  ]
}
